Several values for one entry are separate records, joined by “and”; a condition that tells them apart may be missing. Identical values can stand only once.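 These data come from cells grown in 96-well plates and exposed to compound for 48 hours at five concentrations. GI50 = concentration required for 50% inhibition of growth. TGI: total growth inhibition.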

Some test systems named below: UACC-257 melanoma; SNB-75 CNS; DU-145 prostate; KM12 colon; MALME-3M melanoma; OVCAR-4 ovarian; SF-295 CNS; M14 melanoma; NCI-H23 lung; HCC-2998 colon.
Common to all, as to assay: growth of human tumour cells (NCI), 48 h

For the compound `N=c1ccn2c(n1)OC1C(OP(=O)(O)O)C(CO)OC12` (stereo unspecified), the TGI with UACC-257 melanoma, in the assay with SNB-75 CNS, with DU-145 prostate, in the assay on KM12 colon, with MALME-3M melanoma and with OVCAR-4 ovarian was over 100 µM in each case. Also, the TGI is over 100 µM with SF-295 CNS, over 45.8 µM in the assay with M14 melanoma, over 100 µM in the assay on NCI-H23 lung and 96.4 µM with HCC-2998 colon.
`NC1=NC(=O)N2CC12` (stereo unspecified): the GI50 with UACC-257 melanoma is 66.6 µM and 85 µM; in the assay with SNB-75 CNS, 240 µM; in the assay with DU-145 prostate, 240 µM; in the assay on KM12 colon it was 436 µM; with MALME-3M melanoma, 57.8 µM and 79.7 µM; in the assay with OVCAR-4 ovarian, 198 µM. Moreover, the GI50 with SF-295 CNS was 68.6 µM and 73.1 µM; with NCI-H23 lung, 737 µM; in the assay on HCC-2998 colon it was 520000 nM. The TGI is > 100 µM and 245 µM in the assay on UACC-257 melanoma; > 100 µM and 822 µM with SNB-75 CNS; 851 µM in the assay on DU-145 prostate; > 100 µM and 1070 µM in the assay on KM12 colon; > 100 µM and 202 µM in the assay on MALME-3M melanoma; > 100 µM and 779 µM with OVCAR-4 ovarian. The TGI is > 100 µM and 219 µM with SF-295 CNS; > 100 µM and 273 µM in the assay on M14 melanoma; > 100 µM and 2640 µM in the assay with NCI-H23 lung; > 100 µM and 1250 µM in the assay with HCC-2998 colon.
In the case of `C/C(=C\c1ccn(-c2ccc(N)c(C(F)(F)F)c2)n1)[C@@H]1C[C@@H]2O[C@]2(C)CCC[C@H](C)[C@H](O)[C@@H](C)C(=O)C(C)(C)[C@@H](O)CC(=O)O1`, the GI50 in the assay on UACC-257 melanoma is 4.27 µM; in the assay with SNB-75 CNS, 0.00413 µM; with DU-145 prostate it was 0.0113 µM; in the assay with KM12 colon, 0.00869 µM; in the assay with MALME-3M melanoma, 0.015 µM; with OVCAR-4 ovarian, 0.132 µM. In addition, the results for the GI50 in the assay with SF-295 CNS, in the assay with NCI-H23 lung and in the assay on HCC-2998 colon were 0.0155 µM, 0.0221 µM and 31.7 nM, respectively. Further, the TGI with UACC-257 melanoma was over 32.5 µM; in the assay on SNB-75 CNS, 0.0876 µM; in the assay on DU-145 prostate, 0.0969 µM; with KM12 colon, over 32.5 µM; with MALME-3M melanoma it was 16.7 µM; in the assay with OVCAR-4 ovarian it was over 32.5 µM. Besides, the TGI with SF-295 CNS is 7.23 µM; with NCI-H23 lung, over 32.5 µM; in the assay with HCC-2998 colon it was over 20.4 µM.
`CS(=O)(=O)CCNCc1ccc(-c2ccc3ncnc(Nc4ccc(OCc5ccccc5)c(C(F)(F)F)c4)c3c2)o1`: the GI50 with UACC-257 melanoma is 4.74 µM; in the assay with SNB-75 CNS, 6.21 µM; in the assay with DU-145 prostate, 10.3 µM; in the assay with KM12 colon, 5.48 µM; with MALME-3M melanoma, 4.57 µM; in the assay with OVCAR-4 ovarian it was 10.3 µM. Besides, the GI50 in the assay with SF-295 CNS was 5.1 µM; with M14 melanoma, 5.26 µM; in the assay with NCI-H23 lung, 6.37 µM; in the assay on HCC-2998 colon, 4350 nM. Moreover, the TGI with UACC-257 melanoma is 9.09 µM; in the assay with SNB-75 CNS it was 24.7 µM; in the assay with DU-145 prostate it was over 25 µM; in the assay with KM12 colon, 11.3 µM; with MALME-3M melanoma it was 9.53 µM; with OVCAR-4 ovarian, over 25 µM. Besides, the TGI with SF-295 CNS was 10.6 µM; in the assay on M14 melanoma it was 10.4 µM; in the assay with NCI-H23 lung it was over 19.4 µM; in the assay with HCC-2998 colon, 8.25 µM.
Take `Nc1ccccc1NC(=O)c1ccc(CSc2nc(N3CCOCC3)c3cccn3n2)cc1`: the GI50 in the assay with UACC-257 melanoma is 0.549 µM; in the assay with SNB-75 CNS it was 0.32 µM; with DU-145 prostate, 1.63 µM; in the assay on KM12 colon it was 1.14 µM; in the assay on MALME-3M melanoma, 0.834 µM; in the assay on OVCAR-4 ovarian, 2.47 µM. Further, the GI50 was 1.6 µM in the assay with SF-295 CNS, 0.756 µM in the assay on M14 melanoma, 1.52 µM with NCI-H23 lung and 2000 nM in the assay on HCC-2998 colon. Besides, the TGI is 4.54 µM in the assay on UACC-257 melanoma; 15.6 µM in the assay with SNB-75 CNS; 37.7 µM in the assay with DU-145 prostate; over 100 µM in the assay with KM12 colon; over 100 µM in the assay with MALME-3M melanoma; over 100 µM in the assay with OVCAR-4 ovarian. The TGI with SF-295 CNS was 17.2 µM; in the assay on M14 melanoma it was over 100 µM; with NCI-H23 lung, over 100 µM; in the assay with HCC-2998 colon, 7.41 µM.
Consider `CCOC(=O)[C@H](CSSc1ncnc2cc[nH]c12)NC(=O)[C@@H](C)c1ccc2cc(OC)ccc2c1`, for which the GI50 was 3.62 µM with UACC-257 melanoma; 0.388 µM in the assay with SNB-75 CNS; 0.213 µM in the assay with DU-145 prostate; 1.61 µM with KM12 colon; 4.02 µM in the assay on MALME-3M melanoma; 2.03 µM with OVCAR-4 ovarian. Moreover, the GI50 in the assay with SF-295 CNS was 0.438 µM; in the assay on M14 melanoma, 0.13 µM; with NCI-H23 lung, 2.18 µM; in the assay on HCC-2998 colon it was 1290 nM. Moreover, the TGI in the assay on UACC-257 melanoma was over 100 µM; in the assay on SNB-75 CNS, over 100 µM; in the assay with DU-145 prostate, over 100 µM; in the assay on KM12 colon, over 100 µM; with MALME-3M melanoma it was over 96.5 µM; in the assay with OVCAR-4 ovarian, over 100 µM. Besides, the TGI in the assay on SF-295 CNS was over 100 µM; in the assay with M14 melanoma, over 62.1 µM; in the assay on NCI-H23 lung it was over 100 µM; in the assay with HCC-2998 colon it was over 100 µM.
For the compound `COc1ccc(-c2cc(-c3ccc(Nc4nc(Nc5ccc(Cl)cc5)nc(Nc5ccc(Cl)cc5)n4)cc3)no2)cc1`, the GI50 is 33.2 µM with UACC-257 melanoma; 35.2 µM in the assay with SNB-75 CNS; 11.4 µM in the assay with DU-145 prostate; 7.83 µM with KM12 colon; 20.5 µM in the assay on MALME-3M melanoma; 14.7 µM with OVCAR-4 ovarian. Besides, the GI50 in the assay on SF-295 CNS was 11.4 µM; with M14 melanoma, 16.2 µM; in the assay on NCI-H23 lung, 11.7 µM; with HCC-2998 colon, 2370 nM. In addition, the TGI is over 100 µM with UACC-257 melanoma; over 100 µM in the assay on SNB-75 CNS; 36.3 µM in the assay on DU-145 prostate; 30.3 µM in the assay on KM12 colon; 49 µM in the assay on MALME-3M melanoma; over 100 µM in the assay on OVCAR-4 ovarian. Moreover, the TGI in the assay on SF-295 CNS stood at 39.5 µM; in the assay with M14 melanoma it was 53.7 µM; with NCI-H23 lung, 28.1 µM; in the assay with HCC-2998 colon it was 8.25 µM.
In the case of `O=C(O)C1C2C=CC(O2)C1C(=O)Nc1ccccc1` (stereo unspecified), the TGI with UACC-257 melanoma, in the assay on SNB-75 CNS, in the assay on DU-145 prostate, in the assay on KM12 colon, in the assay on MALME-3M melanoma and in the assay with OVCAR-4 ovarian was over 100 µM in each case. The TGI with SF-295 CNS, with M14 melanoma and in the assay with NCI-H23 lung was over 100 µM each time.

The record behind these values is PubChem BioAssay (NCI).
